The text below walks through data of patent US20210228523A1, “MODULATORS OF SESTRIN-GATOR2 INTERACTION AND USES THEREOF” (Navitor Pharmaceuticals, Inc., priority 2017, published 2021).

This test concerns Male Sprague Dawley rats. Briefly: Novelty Suppressed Feeding Test (NSFT) with home cage feeding control. In kind it is in vivo, rat. The protocol:
Behavioral Analysis Using the Novelty Suppressed Feeding Test (NSFT): The NSFT was conducted as previously described (Warner-Schmidt, J. L. & Duman, R. S. PNAS 104(11): 4647-52 (2007)). Rats were fasted in their home cages for 20 hr and then placed in a Plexiglas open field (76.5 cm×76.5 cm×40 cm) with a small amount of food in the center. Animals were allowed to explore the open field for 8 min and the latency to feed (s) was recorded.
Chronic Unpredictable Stress (CUS) Conditions: Rats were exposed to a variable sequence of 12 unpredictable stressors, preventing habituation as described (Li, N. et al., Biol Psychiatry 69(8): 754-61 (2011)). The following twelve stressors were applied (2 per day, for 25 days): cage rotation, light on, light off, cold stress, isolation, swim stress, food and water deprivation, wet bedding, stroboscope, cage tilt, odor exposure and group housing. The animals in non-stressed (NS) groups were housed normally without the application of external stressors. Both NS and CUS rats were handled and weighed weekly.
Study Design. Thirty-two (32) male Sprague Dawley Male rats weighing between 175 and 200 g were randomized into 4 study groups (n=8/treatment group), following a 5-day acclimation period. On study day 0, rats received a single dose of either saline (Sal) or ketamine (Ket) in Groups 1 and 2, respectively, by intraperitoneal injection (i.p.). The rats in Group 3 and 4 received a single dose of the NV-5138 vehicle (Veh, 0.5% Methylcellulose/0.1% Tween-80) or NV-5138 (160 mg/kg), respectively, by oral gavage. All rats were subjected to the FUST on day 1, 24 hrs after dosing. On day 2, 48 hrs after dosing, the LMA of all rats was measured in an open field. Rats were then fasted for 20 hrs and subjected to the NSFT, 72 hrs post-dose.
Study Design: Fifty-six (56) male rats weighing between 175 and 200 g were randomized into 4 study groups (n=14/group), following a 5-day acclimation period. On study day minus 20, two groups of rats were subjected to CUS for 25 days and two groups of rats were housed normally serving as the NS group. On the day 21 of the CUS protocol, rats received a single dose of either Veh or NV-5138 (160 mg/kg) by oral gavage (day 0). The SPT and NSFT were performed 24 and 48 hrs post-administration (days 1 and 2), respectively. Upon completion of the behavioral tests, after 25 days of the CUS protocol a second dose of NV-5138 or Veh was administered on day 5 and rats were sacrificed 24 hrs later by conscious decapitation. Crude synaptosomes were prepared from the PFC and the synaptic proteins, GluR1 and PSD95 were quantitated by WB.
Study Design. Twenty (20) male rats weighing between 175 and 200 g were randomized into 3 study groups (n=6-7/group), following a 5-day acclimation period. All rats were surgically implanted with bilateral IT cannulas in the PFC 2 weeks prior to dosing. […] Thirty minutes following the intrathecal infusions, either NV-5138 vehicle (Veh-NV, 0.5% methylcellulose/0.1% Tween-80) or NV-5138 (160 mg/kg) was administered by oral gavage. Each treatment group was assessed at the designated time following oral dosing in FST 24 hrs (day 1) LMA 48 hrs (day 2) and the NSFT 72 hrs (day 3 following a 20 hr period of fasting). LMA was measured to rule out overall changes in generally locomotor activity. The study design is presented in Table 11 with timeline of surgical procedures, test article administration and behavioral tests is provided in FIG. 20
Study Design. Forty-eight (48) male rats weighing between 175 and 200 g were randomized into 6 study groups (n=8/group), following a 5-day acclimation period. A single dose of all test articles was administered on day 0 and the behavioral tests were performed 3, 7 and 10 days later. Groups 1 and 2 were dosed on day 0 with NV-5138 (160 mg/kg by oral gavage) and Ket (10 mg/kg by i.p. injection), respectively and subjected to a FST on day 3. […]

“And” between values parts separate entries of the source, which are not always exact repeats. Equal values may be shown once.

Take `CNC1(c2ccccc2Cl)CCCCC1=O` (stereo not shown) [Ket, ketamine, reference compound]: the “decrease in the latency to feed (NSFT) vs Sal” value (Example A, Ket 10 mg/kg i.p. single dose, 72 hrs post-dose, p<0.01) was 31%. Moreover, the “NSFT vs Sal” value (Example G, Ket 10 mg/kg i.p. single dose, 10 days post-dose) is “No significant difference”.

With `CC(C)(C[C@H](N)C(=O)O)C(F)F` [NV-5138], under “Example A, NV-5138 160 mg/kg oral single dose, 72 hrs post-dose, p<0.01”, the “decrease in the latency to feed (NSFT) vs Veh” value stood at 36%. Further, the “NSFT latency to feed” value (Example E, CUS rats, NV-5138 160 mg/kg oral, 48 hrs after treatment, p<0.0001 vs CUS Veh) came to 520.1 ± 40.35 s; the “NSFT latency to feed” value (Example E, non-stressed (NS) rats, NV-5138 160 mg/kg oral, 48 hrs after treatment, p<0.01 vs Veh) came out at 430.6 ± 25.3 s; the “NSFT latency to feed” value (Example F, Veh-R IT infusion then NV-5138 160 mg/kg oral, 72 hrs) came out at 510 ± 50 s. Also, the “decrease in NSFT latency to feed vs Veh-R/Veh-NV” value (Example F, Veh-R IT infusion then NV-5138 160 mg/kg oral, 72 hrs, p<0.05, 160 mg/kg) is 46% and 32%. For the same molecule, the “NSFT latency to feed, R/NV-5138 vs Veh-R/Veh-NV” value (Example F, rapamycin (R, 0.01 nmol) IT infusion into PFC 30 min before NV-5138 160 mg/kg oral, 72 hrs) is on record as “lack of significant effect on latency to feed”. In addition, the “NSFT vs Veh” value (Example G, NV-5138 160 mg/kg oral single dose, 10 days post-dose) is “No significant difference”. The NSFT entry (Example I, NV-5138 80 mg/kg oral daily for 7 days, day 9, 72 hrs post-last dose) is listed as “Significant effects”.
